Laboratory results taken from patent US12161754B2, “Abuse deterrent morphine sulfate dosage forms” (Purdue Pharma L.P., priority 2017, dated 2024).
Where a name gives a salt, the structure may show the parent alone.

Assay: Simulated smoking tests (Example 14)
Settings: API alkalinized with excess NaOH, heated with a Sterno burner for 15 minutes

In the case of `CN1CC[C@]23c4c5ccc(O)c4O[C@H]2[C@@H](O)C=C[C@H]3[C@H]1C5` [Morphine sulfate pentahydrate, morphine hemi(sulfate pentahydrate)], the API volatilized is reported as “about 21%”.
